Columns and labels:
[1] = target: T1, S. cerevisiae type I fungal fatty acid synthase (FAS) (Saccharomyces cerevisiae, UniProt P07149+P19097); assay: cryoEM structure; NADPH oxidation at […] nm; assay type: biochemical; conditions: ER domain near FMN (beta chain); KS-stalled state, 3 mM NADPH, cerulenin-inhibited; weak density, partial binding
T1 construct: gene FAS1; endogenous alpha6beta6 heterododecamer, native purification by anti-FLAG; C-terminal 3xFLAG on FAS1 (beta) kept; beta 230 kDa, alpha 220 kDa; holo-ACP
T1 sequence (P07149 whole entry, the tested form may be a part): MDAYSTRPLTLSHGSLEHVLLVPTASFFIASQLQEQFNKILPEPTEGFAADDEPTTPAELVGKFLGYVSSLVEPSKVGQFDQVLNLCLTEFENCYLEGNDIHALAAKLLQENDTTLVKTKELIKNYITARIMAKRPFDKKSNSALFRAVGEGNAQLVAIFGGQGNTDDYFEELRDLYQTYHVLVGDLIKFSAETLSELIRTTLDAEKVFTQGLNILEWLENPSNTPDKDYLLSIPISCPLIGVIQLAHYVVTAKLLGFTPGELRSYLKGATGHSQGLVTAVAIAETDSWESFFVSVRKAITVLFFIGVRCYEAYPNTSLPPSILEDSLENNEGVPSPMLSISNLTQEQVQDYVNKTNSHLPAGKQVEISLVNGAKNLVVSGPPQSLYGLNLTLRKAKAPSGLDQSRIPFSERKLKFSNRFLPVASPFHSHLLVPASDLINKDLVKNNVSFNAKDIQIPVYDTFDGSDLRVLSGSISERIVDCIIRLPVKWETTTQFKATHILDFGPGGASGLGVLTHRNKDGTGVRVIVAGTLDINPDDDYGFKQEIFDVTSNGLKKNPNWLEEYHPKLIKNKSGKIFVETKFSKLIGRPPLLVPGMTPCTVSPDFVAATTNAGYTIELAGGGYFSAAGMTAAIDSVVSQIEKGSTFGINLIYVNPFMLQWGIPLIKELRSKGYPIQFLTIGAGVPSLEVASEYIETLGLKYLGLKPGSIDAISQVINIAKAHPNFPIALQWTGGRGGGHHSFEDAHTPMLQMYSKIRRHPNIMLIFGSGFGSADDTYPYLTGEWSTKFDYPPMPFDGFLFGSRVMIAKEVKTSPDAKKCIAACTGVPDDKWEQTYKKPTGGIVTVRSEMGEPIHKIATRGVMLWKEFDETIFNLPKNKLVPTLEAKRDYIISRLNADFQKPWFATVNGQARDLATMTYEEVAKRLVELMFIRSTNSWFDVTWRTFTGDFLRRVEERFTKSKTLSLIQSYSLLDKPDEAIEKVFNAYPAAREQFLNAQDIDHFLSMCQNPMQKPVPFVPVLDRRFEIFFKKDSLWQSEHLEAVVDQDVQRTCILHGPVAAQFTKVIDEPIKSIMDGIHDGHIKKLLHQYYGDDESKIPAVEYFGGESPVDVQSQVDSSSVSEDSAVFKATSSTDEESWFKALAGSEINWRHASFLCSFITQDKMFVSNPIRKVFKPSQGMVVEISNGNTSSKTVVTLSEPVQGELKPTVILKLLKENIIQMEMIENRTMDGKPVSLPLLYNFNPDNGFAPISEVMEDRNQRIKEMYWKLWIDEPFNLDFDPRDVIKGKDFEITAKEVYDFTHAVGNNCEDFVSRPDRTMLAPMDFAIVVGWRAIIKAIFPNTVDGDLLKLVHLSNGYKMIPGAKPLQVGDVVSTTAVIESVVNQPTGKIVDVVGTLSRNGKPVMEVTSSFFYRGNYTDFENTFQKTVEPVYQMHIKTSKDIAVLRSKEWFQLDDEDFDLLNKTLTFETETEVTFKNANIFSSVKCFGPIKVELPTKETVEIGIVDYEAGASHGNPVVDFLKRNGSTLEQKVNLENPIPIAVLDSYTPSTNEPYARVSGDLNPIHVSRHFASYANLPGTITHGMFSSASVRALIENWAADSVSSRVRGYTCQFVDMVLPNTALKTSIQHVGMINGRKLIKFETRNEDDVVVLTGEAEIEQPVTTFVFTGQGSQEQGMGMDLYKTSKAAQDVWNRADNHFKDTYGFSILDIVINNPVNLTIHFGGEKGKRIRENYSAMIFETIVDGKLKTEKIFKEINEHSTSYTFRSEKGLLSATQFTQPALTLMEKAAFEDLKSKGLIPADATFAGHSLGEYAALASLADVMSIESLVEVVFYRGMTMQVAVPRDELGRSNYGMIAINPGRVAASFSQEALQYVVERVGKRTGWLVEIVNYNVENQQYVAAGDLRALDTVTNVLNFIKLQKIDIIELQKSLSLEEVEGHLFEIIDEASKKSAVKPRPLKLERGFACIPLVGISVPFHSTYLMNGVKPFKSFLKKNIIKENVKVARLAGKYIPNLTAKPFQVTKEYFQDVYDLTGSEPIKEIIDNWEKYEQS
T1 sequence (P19097 whole entry, the tested form may be a part): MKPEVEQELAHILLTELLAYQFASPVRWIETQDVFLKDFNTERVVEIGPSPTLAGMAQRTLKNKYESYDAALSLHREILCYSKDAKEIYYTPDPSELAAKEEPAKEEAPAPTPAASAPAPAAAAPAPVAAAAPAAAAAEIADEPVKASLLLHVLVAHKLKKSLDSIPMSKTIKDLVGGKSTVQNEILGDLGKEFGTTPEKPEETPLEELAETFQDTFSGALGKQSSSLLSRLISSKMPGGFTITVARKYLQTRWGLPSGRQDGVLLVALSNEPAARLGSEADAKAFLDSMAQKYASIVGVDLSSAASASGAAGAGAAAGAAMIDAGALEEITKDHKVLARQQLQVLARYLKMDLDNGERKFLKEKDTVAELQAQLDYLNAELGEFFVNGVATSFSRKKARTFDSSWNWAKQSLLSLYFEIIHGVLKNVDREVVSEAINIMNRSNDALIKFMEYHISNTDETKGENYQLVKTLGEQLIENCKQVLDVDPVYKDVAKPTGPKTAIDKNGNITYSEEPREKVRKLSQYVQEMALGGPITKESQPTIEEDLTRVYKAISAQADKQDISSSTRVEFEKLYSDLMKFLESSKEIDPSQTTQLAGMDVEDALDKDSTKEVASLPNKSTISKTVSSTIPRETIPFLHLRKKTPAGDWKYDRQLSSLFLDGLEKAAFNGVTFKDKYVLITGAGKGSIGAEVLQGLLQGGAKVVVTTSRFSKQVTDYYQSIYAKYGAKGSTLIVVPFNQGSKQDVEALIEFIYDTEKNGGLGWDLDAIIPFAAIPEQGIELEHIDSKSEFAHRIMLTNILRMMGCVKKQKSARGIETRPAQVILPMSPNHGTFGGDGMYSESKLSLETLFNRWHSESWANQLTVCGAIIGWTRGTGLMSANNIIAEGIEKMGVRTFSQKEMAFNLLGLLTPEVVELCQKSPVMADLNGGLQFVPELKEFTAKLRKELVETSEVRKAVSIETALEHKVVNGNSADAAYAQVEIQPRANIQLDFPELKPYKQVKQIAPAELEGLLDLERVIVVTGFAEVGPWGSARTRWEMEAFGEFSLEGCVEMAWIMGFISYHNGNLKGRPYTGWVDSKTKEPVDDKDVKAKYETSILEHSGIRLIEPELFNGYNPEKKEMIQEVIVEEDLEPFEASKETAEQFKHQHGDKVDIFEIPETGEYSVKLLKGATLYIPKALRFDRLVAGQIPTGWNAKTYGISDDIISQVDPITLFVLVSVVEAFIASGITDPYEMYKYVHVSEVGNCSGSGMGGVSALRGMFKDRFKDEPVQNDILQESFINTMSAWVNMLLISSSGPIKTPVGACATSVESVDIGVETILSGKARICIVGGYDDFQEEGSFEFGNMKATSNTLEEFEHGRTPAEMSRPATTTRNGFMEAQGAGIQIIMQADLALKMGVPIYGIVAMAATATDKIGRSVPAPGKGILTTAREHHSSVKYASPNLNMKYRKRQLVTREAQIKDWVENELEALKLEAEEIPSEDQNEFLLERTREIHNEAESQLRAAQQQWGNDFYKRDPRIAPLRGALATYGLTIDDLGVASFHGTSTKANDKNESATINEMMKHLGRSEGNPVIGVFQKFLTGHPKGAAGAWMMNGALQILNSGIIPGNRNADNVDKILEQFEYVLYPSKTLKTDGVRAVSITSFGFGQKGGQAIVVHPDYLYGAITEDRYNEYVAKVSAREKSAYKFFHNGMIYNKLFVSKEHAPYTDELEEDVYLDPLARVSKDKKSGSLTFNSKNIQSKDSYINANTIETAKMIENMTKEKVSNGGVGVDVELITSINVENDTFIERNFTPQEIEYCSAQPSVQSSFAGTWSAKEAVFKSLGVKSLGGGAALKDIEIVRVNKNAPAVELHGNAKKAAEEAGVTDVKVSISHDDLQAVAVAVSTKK

[2] = target: T2, C. albicans type I fungal fatty acid synthase (FAS) (Candida albicans, UniProt P34731+P43098); assay: cryoEM structure; NADPH oxidation at […] nm; assay type: biochemical; conditions: ER domain near FMN (beta chain); KS-stalled state, 3 mM NADPH, cerulenin-inhibited; weak density, partial binding
T2 construct: gene FAS1; endogenous alpha6beta6 complex, native purification by anti-FLAG; C-terminal 6xHIS-3xFLAG on FAS1 (beta) kept; holo-ACP

[3] = target: T1, S. cerevisiae type I fungal fatty acid synthase (FAS); assay type: biochemical
[4] = target: T2, C. albicans type I fungal fatty acid synthase (FAS); assay: cryoEM structure; assay type: binding; conditions: ER domain (beta chain); Apo state and KS-stalled state
[5] = target: T1, S. cerevisiae type I fungal fatty acid synthase (FAS); assay: cryoEM structure; assay type: binding; conditions: ER domain (beta chain); Apo state and KS-stalled state

NC(=O)C1=CN([C@@H]2O[C@H](COP(=O)(O)OP(=O)(O)OC[C@H]3O[C@@H](n4cnc5c(N)ncnc54)[C@H](OP(=O)(O)O)[C@@H]3O)[C@@H](O)[C@H]2O)C=CC1 [NADPH]
cryoEM structure; NADPH oxidation at 340 nm [1]: Weak NADPH density can also be seen in proximity of FMN
cryoEM structure; NADPH oxidation at 340 nm [2]: Weak density can be seen for the NADPH in proximity of FMN

C/C=C/C/C=C/CCC(=O)[C@H]1O[C@H]1C(N)=O [cerulenin]
not named [3]: are sensitive to cerulenin, a covalent KS-inhibitor

Cc1cc2nc3c(=O)[nH]c(=O)nc-3n(C[C@H](O)[C@H](O)[C@H](O)COP(=O)(O)O)c2cc1C [flavin mononucleotide]
cryoEM structure [4]: catalytic histidine can be modeled with two side chain orientations, one facing FMN
cryoEM structure [5]: the catalytic histidine side chain is in a single conformation facing FMN

Source: paper PMC6736866, “Electron cryomicroscopy observation of acyl carrier protein translocation in type I fungal fatty acid synthase” (Scientific Reports, 2019)
